{
  "source": "patent US20140024653A1",
  "about": "“COMPOSITIONS AND METHODS FOR TREATING CANCER USING PI3K INHIBITOR AND MEK INHIBITOR” (priority 2011, published 2014)",
  "key": {"[1]": {"system": "HCT116 tumor vascular permeability", "test": "tumor vascular permeability, Evans Blue extravasation / Dextran-Fitc", "format": "in vivo, SCID mice", "details": "(2a) 50 mg/kg oral daily day 11 to day 13", "procedure": "HCT116 tumor cells were implanted subcutaneously in the intra-scapular region in SCID mice. […] Each agent was given by oral route on a daily schedule. Tumor growth was monitored throughout the experiment by callipering the tumors. To quantify tumor vascular permeability, tumors were excised under ketamine/Xylazine (120/6 mg/kg ip) anesthesia at day 13, 4 hours post last treatment, 30 min after 0.5% Evans Blue iv injection, and 2 min post Dextran-Fitc 100 mg/kg iv injection. Tumors were then snap frozen, and 25 μm sections obtained for fluorescence quantification. Tumors sections were imaged with Icyte at 488 nm for vascular Dextran-Fitc determination and at 633 nm for Evans-Blue extravasation determination. Respective fluorescence were quantified as the sum of integral phantoms of fluorescence intensity and expressed as the mean ratio of Evans-Blue signal/Dextran-Fitc Signal."}, "[2]": {"system": "human colon carcinoma HCT 116", "procedure": "Mice were over 18 g at start of treatment after an acclimatization time of at least 5 days. […] The mice were housed on a 12 hours light/dark cycle.\nHuman colon carcinoma HCT 116 cells were purchased at American Type Culture Collection [(ATCC), Rockville, Md., USA). The HCT 116 cells were cultured in Dulbecco's modified Eagle's medium (DMEM) (Invitrogen).\nThe animals required to begin a given experiment were pooled and implanted monolaterally on day 0. Treatments were administered on measurable tumors. The solid tumors were allowed to grow to the desired volume range (animals with tumors not in the desired range were excluded). The mice were then pooled and unselectively distributed to the various treatment and control groups. […] The dosages are expressed in mg/kg, based on the body weight at start of therapy. Mice were checked daily, and adverse clinical reactions noted. Each group of mice was weighed as a whole daily until the weight nadir was reached. Then, groups were weighed once to thrice weekly until the end of the experiment. Tumors were measured with a caliper 2 to 3 times weekly until final sacrifice for sampling time, tumor reached 2000 mm^3 or until the animal died (whichever comes first). Solid tumor volumes were estimated from two-dimensional tumor measurements and calculated according to the following equation:\nChanges in tumor volume for each treated (T) and control (C) group were calculated for each tumor by subtracting the tumor volume on the day of first treatment (staging day) from the tumor volume on the specified observation day. The median ΔT is calculated for the treated group, and the median ΔC is calculated for the control group. Then the ratio ΔT/ΔC is calculated and expressed as a percentage. The dose is considered as therapeutically active when ΔT/ΔC is lower than 40% and very active when ΔT/ΔC is lower than 10%.\nThe percent of tumor regression is defined as the % of tumor volume decrease in the treated group at a specified observation day compared to its volume on the first day of treatment. At a specific time point and for each animal, % regression is calculated. The median % regression is then calculated for the group using the following equation:\nPartial regression: Regressions are defined as partial if the tumor volume decreases to 50% of the tumor volume at the start of treatment.\nComplete regression: The CR is achieved when tumor volume=0 mm^3 (CR is considered when tumor volume cannot be recorded)."}, "[3]": {"system": "human primary colon tumors CR-LRB-013P", "test": "antitumor activity against subcutaneous CR-LRB-013P xenografts", "format": "in vivo", "description": "The human primary colon carcinoma CR-LRB-013P tumor model was established by implanting (SC) small tumor fragments and was maintained in SCID female mice using serial passages.\n(§1) Treatments were administered on measurable tumors. […] Mice were checked daily, and adverse clinical reactions noted.\n(§2) Animal body weights included the tumor weight.\n(§3) The primary efficacy end points are ΔT/ΔC, percent median regression, partial and complete regressions (PR and CR). Statistical analyses were performed on SAS system release 8.2 for SUN4 via Everstat V5 software and SAS 9.2 software. A probability less than 5% (p<0.05) was considered as significant."}, "[4]": {"test": "chemical stability of dosing stock solution", "format": "physicochemical", "details": "in the dark at 4° C.", "description": "Compound (2a) formulation was prepared in water for injection. The stock solution was chemically stable 7 days in the dark at 4° C. […] The pH of the final solution was 3. […]"}, "[5]": {"system": "PC-3, U87-MG, A2058, WM-266-4 and MCF7 xenografts", "details": "oral administration alone; PTEN-deficient PC-3, U87-MG, A2058, WM-266-4 or PIK3CA mutated MCF7 xenografts; cited from earlier work"}, "[6]": {"system": "human colon carcinoma HCT 116", "test": "HCT116 tumor growth in fluorescence molecular tomography study", "format": "in vivo, SCID mice", "details": "(2a) 50 mg/kg oral daily day 11 to day 17; p=0.023"}, "[7]": {"system": "human pancreatic MiaPaCa-2", "test": "antitumor activity against subcutaneous MiaPaCa-2 xenografts", "format": "in vivo, nude mice", "details": "XL-147 50 mg/kg po QD, 21 days; 50 mg/kg", "description": "The human pancreatic cancer cell line MiaPaCa-2 (American Type Culture Collection, Manassas Va.), was cultured in MEM medium containing 10% fetal bovine serum, 1% essential amino acid, 1% sodium pyruvate (Life Technologies, Carlsbad, Calif.). […] Cells were re-suspended in PBS (Life Technologies, Carlsbad, Calif.) and then mixed 1:1 with Matrigel (BD Biosciences, San Jose, Calif.). Cells were stored at 4° C. until implantation. MiaPaCa-2 cells (10×10^6 in a 200 μl PBS:Matrigel (1:1) suspension) were subcutaneously injected into the right flank area of female nude (Crl:NU-Foxn1nu) mice (6-8 weeks old, Charles River Laboratories, Wilmington, Mass.). All mice in this study were used according to the guidelines approved by the EMD-Serono Institutional Care and Animal Use Committee (IACUC), #07-003. Developing tumors located in the right flank area of female nude mice were measured over time with digital calipers. […] The remaining tumor-bearing mice were randomized into seven experimental groups (n=9), so that each group had the same mean tumor volume. […] The treatments began on the seventh day following implantation of the Miapaca-2 cells, which was designated as Day 0 for data evaluation purposes. […] Body weights and tumor volumes were assessed twice per week post treatment initiation. […] Efficacy was determined by analyzing tumor volumes and the percent ΔT/ΔC (% ΔT/ΔC). Tumor volume was determined by using the tumor length (1) and width (w) measurements and calculating the volume with the equation 1*w^2/2. The length was measured along the longest axis of the tumor and width was measured perpendicular to that length. The mean percent of actual tumor growth inhibited by the treatments was calculated as follows: [% ΔT/ΔC=(([…]))×100%], where TV=tumor volume, f=final, i=initial and Ctrl=control group. Tolerability was assessed by regarding percent body weight difference during the treatment period. Percent body weight difference was calculated as follows: [% Body weight difference=(BWc-BWi)/BWi×100%], where BW=body weight, c=current, i=initial."}, "[8]": {"system": "human primary colon tumors CR-LRB-009C", "test": "antitumor activity against subcutaneous CR-LRB-009C xenografts", "format": "in vivo", "description": "The human primary colon carcinoma CR-LRB-009C tumor model was established by implanting (SC) small tumor fragments and was maintained in SCID female mice using serial passages.\nas §1, §2, §3"}, "[9]": {"details": "study 1, (2a) 50 mg/kg PO daily days 11-18"}, "[10]": {"details": "study 1, (2a) 75 mg/kg PO daily days 11-18"}, "[11]": {"details": "study 2, (2a) 50 mg/kg PO daily days 11-18"}, "[12]": {"details": "study 2, (2a) 75 mg/kg PO daily days 11-18"}, "[13]": {"details": "study 3, (2a) 50 mg/kg PO daily days 11-20"}, "[14]": {"details": "study 3, (2a) 75 mg/kg PO daily days 11-20"}, "[15]": {"details": "(2a) 75 mg/kg PO daily days 33-50"}, "[16]": {"details": "as single agents or used in combination"}, "[17]": {"details": "(2a) 75 mg/kg PO daily days 11-21"}},
  "note": "Where two headings read alike, the source gives them in different places.",
  "data": [
    {"smiles": "COc1ccc(Cl)c(Nc2nc3ccccc3nc2NS(=O)(=O)c2cccc(NC(=O)C(C)(C)N)c2)c1", "note": "[Compound (2a), N-(3-{[(3-{[2-chloro-5-(methoxy)phenyl]amino}quinoxalin-2-yl)amino]sulfonyl}phenyl)-2-methylalaninamide]", "values": [
      {"measurement": "decrease of the Evans-Blue/Dextran-Fitc ratio compared to control", "setting": "[1]", "value": "−8", "unit": "%"},
      {"measurement": "Average body weight change in % per mouse at nadir", "setting": "[2]; [9]", "value": "−5.8 (18) %"},
      {"measurement": "Drug death", "setting": "[2]; [9]", "value": "0/7"},
      {"measurement": "Median ΔT/ΔC in % day 18", "setting": "[2]; [9]", "value": 62, "unit": "%"},
      {"measurement": "Regressions Complete", "setting": "[2]; [9]", "value": "0/7"},
      {"measurement": "Regressions Partial", "setting": "[2]; [9]", "value": "0/7"},
      {"measurement": "Average body weight change in % per mouse at nadir", "setting": "[2]; [10]", "value": "−8.3 (18) %"},
      {"measurement": "Drug death", "setting": "[2]; [10]", "value": "0/7"},
      {"measurement": "Median ΔT/ΔC in % day 18", "setting": "[2]; [10]", "value": 80, "unit": "%"},
      {"measurement": "Regressions Complete", "setting": "[2]; [10]", "value": "0/7"},
      {"measurement": "Regressions Partial", "setting": "[2]; [10]", "value": "0/7"},
      {"measurement": "tolerability", "setting": "[2]; study 1, as single agents or used in combination", "value": "well-tolerated, inducing minimal BWL"},
      {"measurement": "Average body weight change in % per mouse at nadir", "setting": "[2]; [11]", "value": "−7.7 (18) %"},
      {"measurement": "Drug death", "setting": "[2]; [11]", "value": "0/7"},
      {"measurement": "Median ΔT/ΔC in % day 18", "setting": "[2]; [11]", "value": 52, "unit": "%"},
      {"measurement": "Regressions Complete", "setting": "[2]; [11]", "value": "0/7"},
      {"measurement": "Regressions Partial", "setting": "[2]; [11]", "value": "0/7"},
      {"measurement": "Average body weight change in % per mouse at nadir", "setting": "[2]; [12]", "value": "−6.7 (18) %"},
      {"measurement": "Drug death", "setting": "[2]; [12]", "value": "0/7"},
      {"measurement": "Median ΔT/ΔC in % day 18", "setting": "[2]; [12]", "value": 56, "unit": "%"},
      {"measurement": "Regressions Complete", "setting": "[2]; [12]", "value": "0/7"},
      {"measurement": "Regressions Partial", "setting": "[2]; [12]", "value": "0/7"},
      {"measurement": "tolerability", "setting": "[2]; study 2, as single agents", "value": "well-tolerated, inducing minimal BWL"},
      {"measurement": "Average body weight change in % per mouse at nadir", "setting": "[2]; [13]", "value": "−7.8 (19) %"},
      {"measurement": "Drug death", "setting": "[2]; [13]", "value": "0/10"},
      {"measurement": "Median ΔT/ΔC in % day 20", "setting": "[2]; [13]", "value": 66, "unit": "%"},
      {"measurement": "Regressions Complete", "setting": "[2]; [13]", "value": "0/10"},
      {"measurement": "Regressions Partial", "setting": "[2]; [13]", "value": "0/10"},
      {"measurement": "Average body weight change in % per mouse at nadir", "setting": "[2]; [14]", "value": "−8.5 (20) %"},
      {"measurement": "Drug death", "setting": "[2]; [14]", "value": "0/10"},
      {"measurement": "Median ΔT/ΔC in % day 20", "setting": "[2]; [14]", "value": 64, "unit": "%"},
      {"measurement": "Regressions Complete", "setting": "[2]; [14]", "value": "0/10"},
      {"measurement": "Regressions Partial", "setting": "[2]; [14]", "value": "0/10"},
      {"measurement": "tolerability", "setting": "[2]; study 3, as single agents", "value": "well-tolerated, inducing minimal BWL"},
      {"measurement": "Average body weight change in % per mouse at nadir", "setting": "[3]; [15]", "value": "−9.2 (50) %"},
      {"measurement": "Drug death", "setting": "[3]; [15]", "value": "0/7"},
      {"measurement": "Median ΔT/ΔC in % day 50", "setting": "[3]; [15]", "value": 53, "unit": "%"},
      {"measurement": "Regressions Complete", "setting": "[3]; [15]", "value": "0/7"},
      {"measurement": "Regressions Partial", "setting": "[3]; [15]", "value": "0/7"},
      {"measurement": "tolerability", "setting": "[3]; [16]", "value": "tolerated, inducing some BWL but not reaching toxicity"},
      {"measurement": "stock solution chemically stable", "setting": "[4]; in 1N HCl and water for injection, pH 3", "value": 7, "unit": "days"},
      {"measurement": "stock solution chemically stable", "setting": "[4]; in water for injection", "value": 7, "unit": "days"},
      {"measurement": "tumor growth", "setting": "[5]", "value": "inhibits tumor growth"},
      {"measurement": "ΔT/ΔC at the end of study", "setting": "[6]", "value": 36, "unit": "%"},
      {"measurement": "% ΔT/ΔC", "setting": "[7]", "value": 71.2, "unit": "%"},
      {"measurement": "Average body weight change in % per mouse at nadir", "setting": "[8]; [17]", "value": "−15.8 (21) %"},
      {"measurement": "Drug death", "setting": "[8]; [17]", "value": "0/7"},
      {"measurement": "Median ΔT/ΔC in % day 21", "setting": "[8]; [17]", "value": 39, "unit": "%"},
      {"measurement": "Regressions Complete", "setting": "[8]; [17]", "value": "0/7"},
      {"measurement": "Regressions Partial", "setting": "[8]; [17]", "value": "0/7"},
      {"measurement": "tolerability", "setting": "[8]; [16]", "value": "tolerated, inducing some BWL but not reaching toxicity"}
    ]}
  ]
}
